Results reported in the supplement of paper PMC11208160.

Experiment: recombinant UMI read abundance after kanamycin selection (control-corrected) (log10(CPM+1)); higher = more efficient recombination; extreme values may be limits of the assay; sequences stand for … in AGTGCAGAGAAAATCGGCCAGTTTTCTCTGCCTGCAGTCCGCATGCCGTGGGACCCCTTGGGTTCTAACCTGTTGCCTAGATTTATGCAGCGGACTGCCTTTCTCCCAAAGTGATAAACCGG…AGGTTGGTTTCACT; site = the 11-nt donor
Outline: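 Sequencing read counts were converted to CPM, averaged over two replicates and scaled by control-derived factors. Results are given as log10(CPM+1). The reads covered the donor–target junction of recombinant UMIs from a pooled Escherichia coli screen of donor and donor-binding-loop pairs for the IS621 bridge recombinase.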
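Further: IS621 bridge recombinase in Escherichia coli cells against a fixed T5 target plasmid.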

Question: For “GCGAAAACATGGACCGGTTTTCCCGGTAATCCGTATTTGCT (site GCAAAAACTAG)”, which “recombinant UMI read abundance (log10)” value is on record?
Answer: 0

Question: With “GCGAAAACATGGACCGGTTTTCCCGGTAATCCGTATTTGCT (site GCCAAAACTAG)” as the sequence, how does the “recombinant UMI read abundance (log10)” value read?
Answer: 0

Question: For “GCGAAAACATGGACCGGTTTTCCCGGTAATCCGTATTTGCT (site GCGAAAACTAA)”, which “recombinant UMI read abundance (log10)” value is on record?
Answer: 0.207

Question: With “GCGAAAACATGGACCGGTTTTCCCGGTAATCCGTATTTGCT (site GCGAAAACTAC)” as the sequence, how does the “recombinant UMI read abundance (log10)” value read?
Answer: 0

Question: For “GCGAAAACATGGACCGGTTTTCCCGGTAATCCGTATTTGCT (site GCGAAAACTAG)”, which “recombinant UMI read abundance (log10)” value is on record?
Answer: 0.854

Question: Which “recombinant UMI read abundance (log10)” value does the source give for “GCGAAAACATGGACCGGTTTTCCCGGTAATCCGTATTTGCT (site GCGAAAACTAT)” here?
Answer: 0.00596

Question: With “GCGAAAACATGGACCGGTTTTCCCGGTAATCCGTATTTGCT (site GCGAAAACTCG)” as the sequence, how does the “recombinant UMI read abundance (log10)” value read?
Answer: 0

Question: For “GCGAAAACATGGACCGGTTTTCCCGGTAATCCGTATTTGCT (site GCGAAAACTGG)”, which “recombinant UMI read abundance (log10)” value is on record?
Answer: 0

Question: For “GCGAAAACATGGACCGGTTTTCCCGGTAATCCGTATTTGCT (site GCGAAAACTTG)”, which “recombinant UMI read abundance (log10)” value is on record?
Answer: 0

Question: For “GCGAAAACATGGACCGGTTTTCCCGGTAATCCGTATTTGCT (site GCGAAACCTAG)”, which “recombinant UMI read abundance (log10)” value is on record?
Answer: 0

Question: For “GCGAAAACATGGACCGGTTTTCCCGGTAATCCGTATTTGCT (site GCGAAAGCTAG)”, which “recombinant UMI read abundance (log10)” value is on record?
Answer: 0

Question: Which “recombinant UMI read abundance (log10)” value does the source give for “GCGAAAACATGGACCGGTTTTCCCGGTAATCCGTATTTGCT (site GCGAAATCTAG)” here?
Answer: 0.325

Question: For “GCGAAAACATGGACCGGTTTTCCCGGTAATCCGTATTTGCT (site GCGAACACTAG)”, which “recombinant UMI read abundance (log10)” value is on record?
Answer: 0.232

Question: For “GCGAAAACATGGACCGGTTTTCCCGGTAATCCGTATTTGCT (site GCGAAGACTAG)”, which “recombinant UMI read abundance (log10)” value is on record?
Answer: 0

Question: With “GCGAAAACATGGACCGGTTTTCCCGGTAATCCGTATTTGCT (site GCGAATACTAG)” as the sequence, how does the “recombinant UMI read abundance (log10)” value read?
Answer: 0

Question: With “GCGAAAACATGGACCGGTTTTCCCGGTAATCCGTATTTGCT (site GCGACAACTAG)” as the sequence, how does the “recombinant UMI read abundance (log10)” value read?
Answer: 0.0316

Question: For “GCGAAAACATGGACCGGTTTTCCCGGTAATCCGTATTTGCT (site GCGAGAACTAG)”, which “recombinant UMI read abundance (log10)” value is on record?
Answer: 0

Question: Which “recombinant UMI read abundance (log10)” value does the source give for “GCGAAAACATGGACCGGTTTTCCCGGTAATCCGTATTTGCT (site GCGATAACTAG)” here?
Answer: 0.603

Question: Which “recombinant UMI read abundance (log10)” value does the source give for “GCGAAAACATGGACCGGTTTTCCCGGTAATCCGTATTTGCT (site GCGCAAACTAG)” here?
Answer: 0

Question: Which “recombinant UMI read abundance (log10)” value does the source give for “GCGAAAACATGGACCGGTTTTCCCGGTAATCCGTATTTGCT (site GCGGAAACTAG)” here?
Answer: 1.21

Question: Which “recombinant UMI read abundance (log10)” value does the source give for “GCGAAAACATGGACCGGTTTTCCCGGTAATCCGTATTTGCT (site GCGTAAACTAG)” here?
Answer: 1.73

Question: With “GCGAAAACATGGACCGGTTTTCCCGGTAATCCGTATTTGCT (site GCTAAAACTAG)” as the sequence, how does the “recombinant UMI read abundance (log10)” value read?
Answer: 0

Question: For “GCGAAAACATGGACCGGTTTTCCCGGTAATCCGTATTTGCT (site GGGAAAACTAG)”, which “recombinant UMI read abundance (log10)” value is on record?
Answer: 0

Question: Which “recombinant UMI read abundance (log10)” value does the source give for “GCGAAAACATGGACCGGTTTTCCCGGTAATCCGTATTTGCT (site GTGAAAACTAG)” here?
Answer: 0

Question: With “GCGAAAACATGGACCGGTTTTCCCGGTAATCCGTATTTGCT (site TCGAAAACTAG)” as the sequence, how does the “recombinant UMI read abundance (log10)” value read?
Answer: 0

Question: For “GCGAAGCCATGGACCGGTTTTCCCGGTAATCCGTATTTGCG (site GCGAAGCCTCA)”, which “recombinant UMI read abundance (log10)” value is on record?
Answer: 0.0182

Question: For “GCGAAGCCATGGACCGGTTTTCCCGGTAATCCGTATTTGCG (site GCGAAGCCTCC)”, which “recombinant UMI read abundance (log10)” value is on record?
Answer: 0.0276

Question: For “GCGAAGCCATGGACCGGTTTTCCCGGTAATCCGTATTTGCG (site GCGAAGCCTCG)”, which “recombinant UMI read abundance (log10)” value is on record?
Answer: 0.845

Question: Which “recombinant UMI read abundance (log10)” value does the source give for “GCGAAGCCATGGACCGGTTTTCCCGGTAATCCGTATTTGCG (site GCGAAGCCTCT)” here?
Answer: 0.455

Question: With “GCGAAGGCATGGACCGGTTTTCCCGGTAATCCGTATTTGGG (site GCGAAGACTCC)” as the sequence, how does the “recombinant UMI read abundance (log10)” value read?
Answer: 0.255

Question: With “GCGAAGGCATGGACCGGTTTTCCCGGTAATCCGTATTTGGG (site GCGAAGCCTCC)” as the sequence, how does the “recombinant UMI read abundance (log10)” value read?
Answer: 0.00939

Question: For “GCGAAGGCATGGACCGGTTTTCCCGGTAATCCGTATTTGGG (site GCGAAGGCTCC)”, which “recombinant UMI read abundance (log10)” value is on record?
Answer: 0.562

Question: Which “recombinant UMI read abundance (log10)” value does the source give for “GCGAAGGCATGGACCGGTTTTCCCGGTAATCCGTATTTGGG (site GCGAAGTCTCC)” here?
Answer: 0.779

Question: With “GCGAATACATGGACCGGTTTTCCCGGTAATCCGTATTTGCT (site GCGAAAACTAG)” as the sequence, how does the “recombinant UMI read abundance (log10)” value read?
Answer: 0

Question: With “GCGAATACATGGACCGGTTTTCCCGGTAATCCGTATTTGCT (site GCGAACACTAG)” as the sequence, how does the “recombinant UMI read abundance (log10)” value read?
Answer: 0

Question: For “GCGAATACATGGACCGGTTTTCCCGGTAATCCGTATTTGCT (site GCGAAGACTAG)”, which “recombinant UMI read abundance (log10)” value is on record?
Answer: 0

Question: For “GCGAATACATGGACCGGTTTTCCCGGTAATCCGTATTTGCT (site GCGAATACTAG)”, which “recombinant UMI read abundance (log10)” value is on record?
Answer: 0

Question: Which “recombinant UMI read abundance (log10)” value does the source give for “GCGAATGCATGGACCGGTTTTCCCGGTAATCCGTATTTGGA (site GCGAATGCTTC)” here?
Answer: 1.42

Question: Which “recombinant UMI read abundance (log10)” value does the source give for “GCGACGCCATGGACCGGTTTTCCCGGTAATCCGTATTTGGG (site GCGAAGCCTCC)” here?
Answer: 0.0164

Question: With “GCGACGCCATGGACCGGTTTTCCCGGTAATCCGTATTTGGG (site GCGACGCCTCC)” as the sequence, how does the “recombinant UMI read abundance (log10)” value read?
Answer: 0.00484

Question: Which “recombinant UMI read abundance (log10)” value does the source give for “GCGACGCCATGGACCGGTTTTCCCGGTAATCCGTATTTGGG (site GCGAGGCCTCC)” here?
Answer: 0.0192

Question: For “GCGACGCCATGGACCGGTTTTCCCGGTAATCCGTATTTGGG (site GCGATGCCTCC)”, which “recombinant UMI read abundance (log10)” value is on record?
Answer: 0.00415

Question: With “GCGATAACATGGACCGGTTTTCCCGGTAATCCGTATTTGCT (site GCGAAAACTAG)” as the sequence, how does the “recombinant UMI read abundance (log10)” value read?
Answer: 0

Question: Which “recombinant UMI read abundance (log10)” value does the source give for “GCGATAACATGGACCGGTTTTCCCGGTAATCCGTATTTGCT (site GCGACAACTAG)” here?
Answer: 0.00488

Question: Which “recombinant UMI read abundance (log10)” value does the source give for “GCGATAACATGGACCGGTTTTCCCGGTAATCCGTATTTGCT (site GCGAGAACTAG)” here?
Answer: 0

Question: With “GCGATAACATGGACCGGTTTTCCCGGTAATCCGTATTTGCT (site GCGATAACTAG)” as the sequence, how does the “recombinant UMI read abundance (log10)” value read?
Answer: 2.43

Question: For “GCGATACCATGGACCGGTTTTCCCGGTAATCCGTATTTGAT (site GCGATACCTAT)”, which “recombinant UMI read abundance (log10)” value is on record?
Answer: 0

Question: With “GCGATTCCATGGACCGGTTTTCCCGGTAATCCGTATTTGTA (site GCGATTCCTTA)” as the sequence, how does the “recombinant UMI read abundance (log10)” value read?
Answer: 1.49

Question: Which “recombinant UMI read abundance (log10)” value does the source give for “GCGCATGCATGGACCGGTTTTCCCGGTAATCCGTATTTGGT (site GAGCATGCTAC)” here?
Answer: 0.595

Question: With “GCGCATGCATGGACCGGTTTTCCCGGTAATCCGTATTTGGT (site GCGCATGCTAC)” as the sequence, how does the “recombinant UMI read abundance (log10)” value read?
Answer: 1.14

Question: For “GCGCATGCATGGACCGGTTTTCCCGGTAATCCGTATTTGGT (site GGGCATGCTAC)”, which “recombinant UMI read abundance (log10)” value is on record?
Answer: 0.0133

Question: For “GCGCATGCATGGACCGGTTTTCCCGGTAATCCGTATTTGGT (site GTGCATGCTAC)”, which “recombinant UMI read abundance (log10)” value is on record?
Answer: 0.622

Question: For “GCGCCTCCATGGACCGGTTTTCCCGGTAATCCGTATTTGGG (site GCGCCTCCTCC)”, which “recombinant UMI read abundance (log10)” value is on record?
Answer: 0.0195

Question: For “GCGCGCTCATGGACCGGTTTTCCCGGTAATCCGTATTTGAA (site GCGCGCTCTTT)”, which “recombinant UMI read abundance (log10)” value is on record?
Answer: 1.82

Question: With “GCGCTCACATGGACCGGTTTTCCCGGTAATCCGTATTTGCC (site GCGCTCACTGG)” as the sequence, how does the “recombinant UMI read abundance (log10)” value read?
Answer: 2.47

Question: Which “recombinant UMI read abundance (log10)” value does the source give for “GCGGACACATGGACCGGTTTTCCCGGTAATCCGTATTTGCT (site GCGGACACTAG)” here?
Answer: 2.44

Question: With “GCGGAGGCATGGACCGGTTTTCCCGGTAATCCGTATTTGTG (site GAGGAGGCTCA)” as the sequence, how does the “recombinant UMI read abundance (log10)” value read?
Answer: 0.367
